Marks after values point to notes of the source that are not given here.
Key:
[1] = test system: K. pneumoniae AcrB^V448E RamR^mut; assay: MIC of antibiotics with and without EPI (REMA), double mutant; assay type: cell-based, Klebsiella pneumoniae; details: K. pneumoniae AcrB^V448E RamR^mut
Procedure: MIC experiments were carried out according to the CLSI guidelines (CLSI [2023]). Overnight cultures were diluted to an OD600 = 0.001 in CAMHB followed by addition of efflux pump inhibitors (EPIs) at a final concentration of 100 µM. […] Plates were incubated at 37 °C for up to 20 h. Bacterial viability was evaluated using the resazurin microtitre assay (REMA) and measured by fluorescence using a Tecan Spaert multimode plate reader (Ex: 530 nm Em: 590 nm). MICs were defined as the concentration that prevented 90% of resazurin turnover compared to the non-treated bacteria.

[2] = Microsomal stability in mouse liver microsomes; assay type: in vitro ADME; details: female
Procedure: To determine compound microsomal stability, liver microsomes from female mice (CD-1, Corning) were used. All incubations were performed in duplicate in a shaking water bath at 37 °C. The incubation mixtures contained 1 μM compound with 1% MeOH used as a vehicle, mouse liver microsomes (0.3 mg of microsomal protein per mL), 5 mM MgCl2, 1 mM NADP, 5 mM glucose 6-phosphate, 0.4 U/mL glucose 6-phosphate dehydrogenase, and 50 mM potassium phosphate buffer (pH 7.4) in a final volume of 0.5 mL. Propranolol, known as a high hepatic clearance drug in rodents, was used as a quality-control compound. Controls (t0 and tfinal) were performed in the same conditions but without NADP. The reaction was initiated by the addition of the compound at 1 µM final. Aliquots were removed at 5, 10, 20, 30, and 40 min and the reaction was stopped by adding four volumes of ice-cold MeCN or MeOH containing an internal standard. The samples were centrifuged for 10 min at 12,000 rpm at 4 °C and the supernatants were transferred in matrix tubes for LC-MS/MS analysis. Each compound was quantified by converting the corresponding analyte/internal standard peak area ratios to percentage drug remaining, using the initial ratio values in control incubations as 100%.
Intrinsic clearance (CLint) is expressed as μL/min/mg proteins.

[3] = Pharmacokinetics in mice in combination with levofloxacin (plasma, lung after BAL, ELF); assay type: in vivo, female CD-1 mice; details: female, CD-1, mouse, ELF and plasma, oral; higher than plasma; read-out: ELF exposure (AUC) relative to that measured in the plasma
Procedure: The concentration of compounds in plasma, lungs and ELF was measured after 2 h, 6 h and 24 h. […] After rodent sacrifice by cervical dislocation, bronchoalveolar lavage (BAL) fluid was collected using a cannula inserted into the trachea. 1 mL of PBS was introduced in lungs via the cannula and the collected BAL fluid was centrifuged (5 min, 3500 rpm, 4 °C). Supernatants were removed, their volume recorded, and samples stored at −80 °C until analysis.
Plasma and BAL fluid samples were thawed on ice.
The concentration of compound in ELF, [cpd]ELF, was calculated as follows: cpdELF=cpdBALxVBAL/VELF where [cpd]BAL is the measured concentration of compound in BAL fluid supernatant, VBAL and VELF, the volume of aspired BAL and the calculated volume of ELF, respectively.
The volume of ELF was calculated as follows: VELF=VBALxUreaBAL/UreaPlasma where VELF represents the apparent volume of ELF, VBAL is the volume of aspired BAL, and [Urea]BAL and [Urea]Plasma are concentration of urea in BAL fluid or plasma, respectively.
Concentrations of urea in plasma and in BAL fluid supernatant was measured using the UREA Nitrogen (BUN) colorimetric detection kit, according to the supplier procedural guidelines (Invitrogen).

[4] = target: T1, hERG Human Potassium Ion Channel (Homo sapiens, UniProt Q12809); assay: hERG [3H] Dofetilide binding assay; details: at 30 µM
T1 construct: Eurofins Cerep France (contract assay)
Procedure: hERG (human ether-a-go-go-related gene) inhibition was measured at Eurofins Cerep France using hERG Human Potassium Ion Channel [3H] Dofetilide Binding (Antagonist Radioligand) Assay.

[5] = test system: K. pneumoniae AcrB variant V448E; assay: Berberine accumulation assay, K. pneumoniae AcrB V448E; assay type: cell-based, Klebsiella pneumoniae; details: K. pneumoniae producing AcrB variant V448E
Procedure: The accumulation of the berberine AcrB substrate in K. pneumoniae WT and AcrB-V448E cells in the presence of different BDM91288 (5) concentrations was determined as described (Plé et al, [2022]) with minor modifications. Briefly, an overnight LB pre-culture of each strain (0.6 mL) was used to inoculate a 30-mL LB culture and incubated for around 2 h (37 °C, 150 rpm) to reach OD600 around 1. Cells were harvested by centrifugation (4000 × g, 10 min at 4 °C), washed three times with 10 mL of ice-cold buffer (50 mM potassium-phosphate pH 7.5 and 1 mM MgSO4) and resuspended into the same buffer containing also 0.2% glucose to an OD600 of 2. The bacterial suspension was then allowed to reach room temperature, after which 200 µL was dispensed to wells of an assay ready 96-black-well plate (Greiner Bio-One) containing 2 µL of 100× concentrated serial dilution of BDM91288 (5). To initiate the uptake experiment, 2 µL of berberine 20 mM (final concentration of 200 µM) was added to each well and transferred to a microplate fluorescence plate reader (Spark, Tecan), where the kinetics of berberine uptake was monitored for 20 min at 30 °C (excitation 365 nm/emission 540 nm). Experiments were performed 4 independent times, and berberine uptake was calculated for all conditions as the rate of fluorescence increase over the first 10 min and expressed as RFU/min (mean ± SD). […]

Solubility in PBS pH 7.4 = assay type: physicochemical; details: PBS pH 7.4, pH 7.4, aqueous buffer, thermodynamic from solid
Procedure: 0.5 mg of BDM91288 (5) were dissolved either in 1235 μL of PBS pH 7.4 (triplicate) or in 1235 µL of DMSO (triplicate twice). After gently stirring 24 h at room temperature, the solutions were centrifuged for 5 min at 4000 rpm and filtered over 0.45-μm filters (Millex-LH Millipore), excepted one of the DMSO triplicate. Then, 2 µL of each solution was diluted in 998 µL of MeOH were transferred in matrix tubes for LC-MS/MS analysis. The solubility was determined according to the following formula: Solubility (µM) = [AUC(filtered PBS)/AUC(not filtered DMSO)] × 1000.

[6] = Toxicity in mice after a single oral administration; assay type: in vivo; details: over a 24-h period after a single oral administration at 30 mg/kg
Procedure: For these reasons, this compound was selected for multi-organ pharmacokinetic (PK) studies to measure its temporal distribution and tissue concentration in female mice (CD-1), following a single oral administration of 30 mg/kg (Fig. EV3A; Appendix Table S3).

T1 sequence (Q12809 whole entry): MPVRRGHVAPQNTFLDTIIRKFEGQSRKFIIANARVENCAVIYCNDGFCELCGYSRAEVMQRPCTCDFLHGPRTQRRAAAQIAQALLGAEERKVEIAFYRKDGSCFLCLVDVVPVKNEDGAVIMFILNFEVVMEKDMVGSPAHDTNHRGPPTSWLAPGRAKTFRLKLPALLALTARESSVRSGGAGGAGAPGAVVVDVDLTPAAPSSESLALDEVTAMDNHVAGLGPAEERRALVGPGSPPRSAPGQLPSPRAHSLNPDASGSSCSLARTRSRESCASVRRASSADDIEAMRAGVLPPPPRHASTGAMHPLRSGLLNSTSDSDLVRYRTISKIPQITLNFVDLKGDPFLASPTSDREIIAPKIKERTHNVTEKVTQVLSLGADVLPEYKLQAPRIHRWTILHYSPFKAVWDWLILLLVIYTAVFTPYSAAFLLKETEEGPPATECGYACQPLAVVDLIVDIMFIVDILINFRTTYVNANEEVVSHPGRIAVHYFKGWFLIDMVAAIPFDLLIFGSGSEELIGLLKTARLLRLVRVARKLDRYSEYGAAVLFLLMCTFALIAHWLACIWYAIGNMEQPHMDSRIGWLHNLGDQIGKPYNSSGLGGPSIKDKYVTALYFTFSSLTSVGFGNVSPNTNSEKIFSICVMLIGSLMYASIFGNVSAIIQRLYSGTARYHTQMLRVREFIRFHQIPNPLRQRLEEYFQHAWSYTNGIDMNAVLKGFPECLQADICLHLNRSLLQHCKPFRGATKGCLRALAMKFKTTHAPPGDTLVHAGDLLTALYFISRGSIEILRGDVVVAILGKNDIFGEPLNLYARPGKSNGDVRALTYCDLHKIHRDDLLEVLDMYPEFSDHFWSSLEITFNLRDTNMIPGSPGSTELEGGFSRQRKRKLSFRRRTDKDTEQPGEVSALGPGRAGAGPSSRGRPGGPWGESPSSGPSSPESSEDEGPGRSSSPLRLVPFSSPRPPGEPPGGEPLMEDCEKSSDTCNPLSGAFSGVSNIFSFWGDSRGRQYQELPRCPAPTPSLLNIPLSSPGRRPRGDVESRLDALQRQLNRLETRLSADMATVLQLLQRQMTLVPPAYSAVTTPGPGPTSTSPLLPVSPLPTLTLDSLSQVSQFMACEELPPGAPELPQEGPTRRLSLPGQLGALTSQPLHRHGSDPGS

| Structure (SMILES) | Minimum Inhibitory Concentration ([1]; + 100 µM 1') [mg/L] | Minimum Inhibitory Concentration ([1]; + 100 µM 5) [mg/L] | Minimum Inhibitory Concentration ([1]; + 100 µM PAβN) | Minimum Inhibitory Concentration ([1]; No EPI) [mg/L] | microsomal CLint at 1 μM ([2]; CD-1, pH 7.4, read-out: Microsomal stability CLint (intrinsic clearance)) [µL/min/mg] | half-life at 1 μM ([2]; CD-1, pH 7.4, read-out: Microsomal stability t1/2) [min] | Kp [3] | inhibition of the hERG potassium channel [4] [%] | concentration-dependent stimulation of berberine uptake [5] | solubility at 24 h (Solubility in PBS pH 7.4) [µM] | toxicity in mice [6] |
| --- | --- | --- | --- | --- | --- | --- | --- | --- | --- | --- | --- |
| C[C@H]1COc2c(N3CCN(C)CC3)c(F)cc3c(=O)c(C(=O)O)cn1c23 [Levofloxacin] | 1.28 | 1.28 | 0.05^# mg/L | 1.28 |  |  |  |  |  |  |  |
| Clc1cc2cc(N3CCNCC3)ccc2nc1N1CCNCC1 [compound 5] |  |  |  |  | 6 | > 40 | 2.3 | 8 | not observed | ≥ 1000 | no toxicity was observed |
